Results published in patent US6703388B2, “Nitrogen-containing tricyclic compounds and drugs containing the same” (Eisai Co., Ltd., priority 1996, dated 2004).
Where two headings read alike, the source gives them in different places.

Assays:
RBL-2H3 cells = experiment: Inhibition of serotonin liberation from IgE-sensitized RBL-2H3 cells after antigen stimulation; assay type: cell-based, rat; conditions: Rattus norvegicus; [3H]-serotonin release, IgE-sensitized RBL-2H3 cells, antigen stimulation; read-out: IC50 (μM) in serotonin liberation from RBL-2H3 cells
Description: IgE-sensitized RBL-2H3 cells (i.e., a cell line originating in rat cells) release and produce not only histamine and serotonin but also cytokines such as TNF α and prostaglandins which are inflammatory mediators after stimulation with IgE sepecific antibody. In this experimental system, inhibitory effects on various mediators release were examined by using serotonin as an indication.
The cells were beforehand labeled with [^3H]-labeled serotonin and, at the same time, sensitized with the IgE antibody. After incubating with the compounds of the present invention, the cells were stimulated with the specific antigen. Then the inhibitory activity of each compound was calculated from the amount of the [^3H]-labeled serotonin thus liberated into the medium and the amount of [^3H]-labeled serotonin liberated when no compound of the present invention was added.

human basophils = experiment: Inhibition of mediator (histamine, peptide leukotriene) liberation from human basophils stimulated with mite antigen; assay type: cell-based; conditions: enzyme immunoassay
Protocol: 6 ml of 6% dextran (for separating leukocytes, having a high molecular weight) was added to 20 ml of heparinized blood. After stirring well, the resulting mixture was allowed to stand at 37° C. for 30 min and thus erythrocytes were precipitated. The upper layer was taken up and phosphate buffered saline (D-PBS) was added thereto followed by centrifugation at 185 g for 8 minutes to give a crude leukocyte fraction. These cells were subjected to hypotonic hematolysis and then suspended in D-PBS(+) containing 0.1%-BSA. The resulting suspension was used in the subsequent experiment as the leukocyte fraction containing basophils. 0.4 ml of this cell suspension was preliminarily heated to 37° C. for 5 min and then 0.05 ml of a specimen solution was added thereto followed by a pretreatment at 37° C. for 15 min. Next, 0.05 ml of a mite antigen solution was added thereto to induce an antigen-antibody reaction. After 10 min, the reaction was ceased by ice-cooling. Then the reaction mixture was centrifuged at 185 g for 10 min and histamine and peptide leukotrienes in the resulting supernatant were determined by using enzyme immunoassay kits. From the results of the assay, the activities of the acridone derivatives of inhibiting the liberation of histamine and peptide leukotriene were determined.

[1] = histamine, read-out: IC50 (μM) in mediator liberation from human basophils: histamine
[2] = peptide leukotriene, read-out: IC50 (μM) in mediator liberation from human basophils: leukotriene

Row | Structure (SMILES) | IC50 (RBL-2H3 cells) [µM] | IC50 (human basophils; [1]) [µM] | IC50 (human basophils; [2]) [µM]
1 | Cc1ccc2c(c1C)N(CCCNCc1cccc(C)c1O)c1ccccc1[S+]2[O-] (centres unmarked) [Example 26] | 2 | < 10 | < 10
2 | COc1cccc(CNCCCN2c3ccccc3[S+]([O-])c3ccc(C)c(C)c32)c1O (centres unmarked) [Example 27] | 3 | 30 to 100 | 10 to 30
3 | Cc1ccc2c(c1C)N(CCCNCc1cccc(OC(C)C)c1O)c1ccccc1[S+]2[O-] (centres unmarked) [Example 28] | 0.8 | 10 to 30 | 3
4 | Cc1ccc2c(c1C)N(CCCNCc1cccc(Cl)c1O)c1ccccc1[S+]2[O-] (centres unmarked) [Example 29] | 0.8 | 10 to 30 | 3 to 10
5 | Cc1ccc2c(c1C)N(CCCNCc1cccc(Br)c1O)c1ccccc1[S+]2[O-] (centres unmarked) [Example 30] | 2 | 3 to 10 | < 3
6 | Cc1ccc2c(c1C)N(CCCNCc1ccc(O)c(C(=O)O)c1)c1ccccc1[S+]2[O-] (centres unmarked) [Example 32] | 0.5 | 30 to 100 | 10 to 30
7 | Cc1ccc2c(c1C)N(CCCNCc1cc(O)ccc1O)c1ccccc1[S+]2[O-] (centres unmarked) [Example 33] | 1 | 10 to 30 | 10
8 | Cc1ccc2c(c1C)N(CCCNCc1cc(Cl)cc(Cl)c1O)c1ccccc1[S+]2[O-] (centres unmarked) [Example 34] | 2 | 3 to 10 | 3
9 | COCc1cccc(CNCCCN2c3ccccc3[S+]([O-])c3ccc(C)c(C)c32)c1O (centres unmarked) [Example 35] | 1 | 3 | 3 to 10
10 | Cc1ccc2c(c1C)N(CCCNCc1c(O)cccc1O)c1ccccc1[S+]2[O-] (centres unmarked) [Example 36] | 1 | 3 to 10 | 3 to 10
11 | Cc1ccc2c(c1C)N(CCCNCc1c(O)ccc(C)c1O)c1ccccc1[S+]2[O-] (centres unmarked) [Example 37] | 2 | 10 to 30 | 3 to 10
12 | COc1cc(C)c(O)c(CNCCCN2c3ccccc3[S+]([O-])c3ccc(C)c(C)c32)c1O (centres unmarked) [Example 39] | 2 | 10 to 30 | 10 to 30
13 | Cc1ccc2c(c1C)N(CCCNCc1cccc(F)c1O)c1ccccc1[S+]2[O-] (centres unmarked) [Example 42] | 2 | 3 to 10 | < 3
14 | COCOc1ccccc1CNCCCN1c2ccccc2[S+]([O-])c2ccc(C)c(C)c21 (centres unmarked) [Example 44] | 1 | 10 to 30 | 10
15 | COc1cccc(OC)c1CNCCCN1c2ccccc2[S+]([O-])c2ccc(C)c(C)c21 (centres unmarked) [Example 45] | 1 | 3 to 10 | 3
16 | Cc1ccc2c(c1C)N(CCCNCc1ccccc1OCCO)c1ccccc1[S+]2[O-] (centres unmarked) [Example 46] | 0.5 | 10 to 30 | 10 to 30
17 | COCOc1c(CNCCCN2c3ccccc3[S+]([O-])c3ccc(C)c(C)c32)cccc1OC(C)C (centres unmarked) [Example 47] | 0.5 | 3 to 10 | 3
18 | COCOc1c(Cl)cccc1CNCCCN1c2ccccc2[S+]([O-])c2ccc(C)c(C)c21 (centres unmarked) [Example 48] | 0.3 | 3 to 10 | 3
19 | Cc1ccc2c(c1C)N(CCCNCc1cccc(N(C)C)c1)c1ccccc1[S+]2[O-] (centres unmarked) [Example 49] | 2 | 10 | 3 to 10
20 | Cc1ccc2c(c1C)N(CCCNCc1ccccc1N(C)C)c1ccccc1[S+]2[O-] (centres unmarked) [Example 50] | 2 | 30 | 10 to 30
21 | Cc1ccc2c(c1C)N(CCCNCc1ccccc1N)c1ccccc1[S+]2[O-] (centres unmarked) [Example 51] | 2 | 10 to 30 | 10 to 30
22 | Cc1ccc2c(c1C)N(CCCNCc1ccc3c(c1)OCCO3)c1ccccc1[S+]2[O-] (centres unmarked) [Example 53] | 0.8 | 30 to 100 | 10 to 30
23 | Cc1ccc2c(c1C)N(CCCNCc1cccc3c1OCO3)c1ccccc1[S+]2[O-] (centres unmarked) [Example 54] | 1 | 10 | 3 to 10
24 | Cc1ccc2c(c1C)N(CCCNCc1ccc(C#N)s1)c1ccccc1[S+]2[O-] (centres unmarked) [Example 58] | 2 | 10 to 30 | 10 to 30
25 | Cc1ccc2c(c1C)N(CCCNCc1ccco1)c1ccccc1[S+]2[O-] (centres unmarked) [Example 62] | 3 | 10 | 3
26 | COc1ccc(CNCCCN2c3ccccc3[S+]([O-])c3ccc(C)c(C)c32)o1 (centres unmarked) [Example 64] | 3 | 3 to 10 | 3

Row | Structure (SMILES) | IC50 (RBL-2H3 cells) [µM] | IC50 (human basophils; [1]) [µM] | IC50 (human basophils; [2]) [µM]
27 | Cc1ccc2c(c1C)N(CCCNCc1ccc(CO)o1)c1ccccc1[S+]2[O-] (centres unmarked) [Example 65] | 0.5 | 30 to 100 | 10 to 30
28 | COc1ccsc1CNCCCN1c2ccccc2[S+]([O-])c2ccc(C)c(C)c21 (centres unmarked) [Example 66] | 0.5 | < 3 | < 3
29 | COc1ccc(CNCCCN2c3ccccc3[S+]([O-])c3ccc(C)c(C)c32)s1 (centres unmarked) [Example 67] | 1 | 10 to 30 | 10 to 30
30 | Cc1ccc2c(c1C)N(CCCNCc1[nH]cnc1-c1ccccc1)c1ccccc1[S+]2[O-] (centres unmarked) [Example 69] | 1 | 10 | 3 to 10
31 | COc1csc(CNCCCN2c3ccccc3[S+]([O-])c3ccc(C)c(C)c32)c1 (centres unmarked) [Example 73] | 2 | 3 to 10 | 3 to 10
32 | Cc1ccc2c(c1C)N(CCCNCc1ccccc1)c1ccc(Cl)cc1[S+]2[O-] (centres unmarked) [Example 80] | 1 | 10 | 3 to 10
33 | COc1ccsc1CNCCCN1c2ccc(Cl)cc2[S+]([O-])c2ccc(C)c(C)c21 (centres unmarked) [Example 81] | 1 | 10 to 30 | 3 to 10
34 | Cc1ccc2c(c1C)N(CCCNCc1ccccc1)c1cccc(Cl)c1[S+]2[O-] (centres unmarked) [Example 82] | 2 | 3 to 10 | 10 to 30
35 | COc1ccsc1CNCCCN1c2cccc(Cl)c2[S+]([O-])c2ccc(C)c(C)c21 (centres unmarked) [Example 83] | 2 | 10 | 10 to 30
36 | Cc1ccc2c(c1C)N(CCCNCc1ccccc1)c1cc(Cl)ccc1[S+]2[O-] (centres unmarked) [Example 84] | 2 | < 3 | < 3
37 | COc1ccsc1CNCCCN1c2cc(Cl)ccc2[S+]([O-])c2ccc(C)c(C)c21 (centres unmarked) [Example 85] | 3 | 3 | 10 to 30
38 | Cc1ccc2c(c1C)N(CCCNCCc1ccccc1)c1ccc(F)cc1[S+]2[O-] (centres unmarked) [Example 86] | 1 | 10 to 30 | 10
39 | COc1ccsc1CNCCCN1c2ccc(F)cc2[S+]([O-])c2ccc(C)c(C)c21 (centres unmarked) [Example 87] | 3 | 3 to 10 | 3 to 10
40 | Cc1ccc2c(c1C)N(CCCNCc1ccccc1)c1cc(C#N)ccc1[S+]2[O-] (centres unmarked) [Example 90] | 3 | 30 to 100 | 10 to 30
41 | Cc1cc(C)c2c(c1C)N(CCCNCc1ccccc1)c1ccccc1[S+]2[O-] (centres unmarked) [Example 100] | 2 | 3 | 10
42 | Cc1ccc2c(c1C)N(CCCNC(C)c1ccccc1O)c1ccccc1[S+]2[O-] (centres unmarked) [Example 102] | 1 | 30 | 10 to 30
43 | Cc1ccc2c(c1C)N(CCCN1CCc3ccccc3C1)c1ccccc1[S+]2[O-] (centres unmarked) [Example 108] | 2 | 30 | 10 to 30
44 | Cc1ccc2c(c1C)N(CCCNCCOc1ccccc1)c1ccccc1[S+]2[O-] (centres unmarked) [Example 113] | 3 | 10 | < 10
45 | Cc1ccc2c(c1C)N(CCCN1CCN(Cc3ccccc3O)CC1)c1ccccc1[S+]2[O-] (centres unmarked) [Example 114] | 2 | 30 to 100 | 10
46 | Cc1ccc2c(c1C)N(Cc1cccc(CN3CCN(Cc4ccccc4)CC3)n1)c1ccccc1[S+]2[O-] (centres unmarked) [Example 122] | 3 | 10 to 30 | < 10
47 | Cc1ccc2c(c1C)N(CCCN(CCN(C)C)Cc1ccccc1)c1ccccc1[S+]2[O-] (centres unmarked) [Example 125] | 2 | < 10 | < 10
48 | Cc1ccc2c(c1C)N(CCCNC(CO)c1ccccc1)c1ccccc1[S+]2[O-] (centres unmarked) [Example 128] | 1 |  | 10 to 30
49 | CCOC(=O)CN(CCCN1c2ccccc2[S+]([O-])c2ccc(C)c(C)c21)Cc1ccccc1O (centres unmarked) [Example 134] | 3 | 3 | 3
50 | Cc1ccc2c(c1C)N(CCCN(Cc1ccccc1O)CC(O)CO)c1ccccc1[S+]2[O-] (centres unmarked) [Example 137] | 1 | 10 to 30 | 3
51 | Cc1ccc2c(c1C)N(CCCCNCc1ccccc1O)c1ccccc1[S+]2[O-] (centres unmarked) [Example 140] | 3 | 10 | 3 to 10
